# The supplement of paper PMC11061612
# Columns and labels:
# Assay in all cases: combination Emax (second highest fraction inhibited in the dose matrix, 72 h); higher = more inhibition; extreme values may be limits of the assay
# [1] = system: PA-TU-8988T (Pancreatic Carcinoma)
# Summary of the method: (§1)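 Bliss excess equals the observed combination effect minus the expected value EA + EB − EA·EB, where EA and EB are the effects of each agent alone. Combination Emax is the second-highest inhibition within the matrix. Inhibition was scaled from CellTiter-Glo 2.0 luminescence, with 0 set by vehicle wells and 1 by blank wells, after 72 hours of two-drug dosing of cells plated in 1536-well plates.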
# [2] = system: SUP-M2 (T-Cell Non-Hodgkin's Lymphoma)
# Summary of the method: as §1
# [3] = system: PL4 (Pancreatic Carcinoma)
# Summary of the method: as §1
# [4] = system: UACC-257 (Melanoma)
# Summary of the method: as §1
# [5] = system: KP-4 (Pancreatic Carcinoma)
# Summary of the method: as §1
# [6] = system: GAK (Melanoma)
# Summary of the method: as §1
# [7] = system: T47D (Breast Carcinoma)
# Summary of the method: as §1
# [8] = system: SNU-423 (Hepatocellular Carcinoma)
# Summary of the method: as §1
# [9] = system: NCI-H596 (Other Solid Carcinomas)
# Summary of the method: as §1
# [10] = system: BxPC-3 (Pancreatic Carcinoma)
# Summary of the method: as §1
# [11] = system: NCI-H3118 (Head and Neck Carcinoma)
# Summary of the method: as §1
# [12] = system: NCI-H226 (Mesothelioma)
# Summary of the method: as §1
# [13] = system: SKG-IIIa (Cervical Carcinoma)
# Summary of the method: as §1
# [14] = system: AM-38 (Glioblastoma)
# Summary of the method: as §1
# [15] = system: MS-1 (Small Cell Lung Carcinoma)
# Summary of the method: as §1
# [16] = system: NB1 (Neuroblastoma)
# Summary of the method: as §1
# [17] = system: IA-LM (Non-Small Cell Lung Carcinoma)
# Summary of the method: as §1
# [18] = system: SCC-4 (Oral Cavity Carcinoma)
# Summary of the method: as §1
# [19] = system: MDA-MB-415 (Breast Carcinoma)
# Summary of the method: as §1
# [20] = system: LCLC-103H (Non-Small Cell Lung Carcinoma)
# Summary of the method: as §1
Compound,combination Emax [1],combination Emax [2],combination Emax [3],combination Emax [4],combination Emax [5],combination Emax [6],combination Emax [7],combination Emax [8],combination Emax [9],combination Emax [10],combination Emax [11],combination Emax [12],combination Emax [13],combination Emax [14],combination Emax [15],combination Emax [16],combination Emax [17],combination Emax [18],combination Emax [19],combination Emax [20]
"Cc1cc2ncnn2cc1Nc1ncc2c(n1)n(C1CCOCC1)c(=O)n2C [AZD7648] + CN(C)CCCOc1ccc(-c2ccc3ncc4c(c3c2)n(C2CCOCC2)c(=O)n4C)cn1 [AZD0156] (first compound max 10 µM, 7x7, partner max 1 µM)",0.271,0.183,0.0509,0.186,0.23,0.303,0.501,0.341,0.243,0.176,0.215,0.271,0.241,0.417,0.309,0.238,0.35,0.219,0.504,0.338
"Cn1cnc2c(F)c(Nc3ccc(Br)cc3Cl)c(C(=O)NOCCO)cc21 [Selumetinib] + CCN(CCO)CCCOc1ccc2c(Nc3cc(CC(=O)Nc4cccc(F)c4)[nH]n3)ncnc2c1 [AZD2811] (first compound max 10 µM, 7x7, partner max 1 µM)",0.321,0.998,0.572,0.68,0.678,0.629,0.29,0.264,0.23,0.407,0.537,0.216,0.321,0.542,0.179,0.566,0.28,0.415,0.248,0.376
"NC1(C(=O)N[C@@H](CCO)c2ccc(Cl)cc2)CCN(c2ncnc3[nH]ccc23)CC1 [Capivasertib] + C[C@@H]1COCCN1C2=NC(=NC(=C2)C3(CC3)[S@](=N)(=O)C)C4=C5C=CNC5=NC=C4 [AZD6738] (first compound max 10 µM, 7x7, partner max 10 µM)",0.625,1,0.777,0.389,0.597,0.509,0.481,0.586,0.575,0.429,0.603,0.358,0.5,0.7,0.747,0.853,0.324,0.558,0.846,0.524
"NC1(C(=O)N[C@@H](CCO)c2ccc(Cl)cc2)CCN(c2ncnc3[nH]ccc23)CC1 [Capivasertib] + CC(=O)c1c(C)c2cnc(Nc3ccc(N4CCNCC4)cn3)nc2n(C2CCCC2)c1=O [Palbociclib] (first compound max 10 µM, 7x7, partner max 10 µM)",0.456,0.89,0.478,0.276,0.595,0.474,0.434,0.458,0.596,0.23,0.519,0.3,0.27,0.473,0.266,0.697,0.206,0.271,0.769,0.448
"COc1cccc(OCCCN)c1-c1cc(Nc2cnc(C#N)cn2)n[nH]1 [Prexasertib] + Cc1cc2ncnn2cc1Nc1ncc2c(n1)n(C1CCOCC1)c(=O)n2C [AZD7648] (first compound max 1 µM, 7x7, partner max 10 µM)",0.532,1,0.836,0.321,0.429,0.708,0.512,0.735,0.438,0.68,0.819,0.209,0.389,0.845,0.971,0.78,0.489,0.609,0.413,0.725
"CCN(CCO)CCCOc1ccc2c(Nc3cc(CC(=O)Nc4cccc(F)c4)[nH]n3)ncnc2c1 [AZD2811] + C[C@@H]1COCCN1C2=NC(=NC(=C2)C3(CC3)[S@](=N)(=O)C)C4=C5C=CNC5=NC=C4 [AZD6738] (first compound max 1 µM, 7x7, partner max 10 µM)",0.35,0.999,0.657,0.16,0.611,0.564,0.313,0.473,0.377,0.447,0.599,0.233,0.326,0.747,0.72,0.79,0.304,0.633,0.498,0.5
"CC1(C)CCC(CN2CCN(c3ccc(C(=O)NS(=O)(=O)c4ccc(NCC5CCOCC5)c([N+](=O)[O-])c4)c(Oc4cnc5[nH]ccc5c4)c3)CC2)=C(c2ccc(Cl)cc2)C1 [Venetoclax] + C1CN(CCC1(C(=O)N[C@@H](CCO)C2=CC=C(C=C2)Cl)N)C3=NC=NC4=C3C=CN4 [Capivasertib] (first compound max 1 µM, 7x7, partner max 3 µM)",0.219,0.248,0.197,0.123,0.0982,0.152,0.373,0.393,0.334,0.297,0.169,0.241,0.224,0.0317,0.36,0.755,0.189,0.23,0.663,0.238
